Experimental data published in patent publication US20110105509A1 (Wyeth, LLC, priority 2009, published 2011).

Biological target: T1, CRTH2 (Homo sapiens, UniProt Q9Y5Y4)
T1 construct: expressed in transfected cells; host or cells: CHO cells
T1 sequence (Q9Y5Y4 1-395): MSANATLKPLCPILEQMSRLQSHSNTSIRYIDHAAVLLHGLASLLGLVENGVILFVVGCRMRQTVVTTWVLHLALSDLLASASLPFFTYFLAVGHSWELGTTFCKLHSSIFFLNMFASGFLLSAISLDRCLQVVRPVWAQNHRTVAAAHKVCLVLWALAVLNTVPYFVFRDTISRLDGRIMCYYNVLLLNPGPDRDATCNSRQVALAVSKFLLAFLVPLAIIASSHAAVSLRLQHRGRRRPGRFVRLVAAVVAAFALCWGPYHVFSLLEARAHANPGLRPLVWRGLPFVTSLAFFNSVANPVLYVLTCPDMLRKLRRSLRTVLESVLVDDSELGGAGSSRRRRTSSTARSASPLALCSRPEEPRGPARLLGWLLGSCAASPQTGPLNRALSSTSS
Experiment: FRET based competitive immunoassay (cAMP) in CRTH2 expressing CHO cells
Format: cell-based
Settings: CRTH2 expressing CHO cells incubated with forskolin and PGD2; Eu3+ cryptate-labeled anti-cAMP and d2-labeled cAMP
Experimental: FRET Assay: To evaluate potency compounds were tested in a FRET based competitive immunoassay in which CRTH2 expressing CHO cells were incubated in the presence of forskolin and PGD2 along with Eu3+ cryptate-labeled anti-cAMP and d2-labeled cAMP.

SMILES	IC50 [nM]
Cc1c(-c2nn(C)c(=O)c3ccccc23)c2cc(F)ccc2n1CC(=O)O [Example 120, 2-(5-fluoro-2-methyl-3-(3-methyl-4-oxo-3,4-dihydrophthalazin-1-yl)-1H-indol-1-yl)acetic acid]	201
CCn1nc(-c2c(C)n(CC(=O)O)c3ccc(F)cc23)c2ccccc2c1=O [Example 121, 2-(3-(3-ethyl-4-oxo-3,4-dihydrophthalazin-1-yl)-5-fluoro-2-methyl-1H-indol-1-yl)acetic acid]	55
Cc1c(-c2nn(C3CC3)c(=O)c3ccccc23)c2cc(F)ccc2n1CC(=O)O [Example 123, 2-(3-(3-cyclopropyl-4-oxo-3,4-dihydrophthalazin-1-yl)-5-fluoro-2-methyl-1H-indol-1-yl)acetic acid]	22
Cc1c(-c2nn(CC(F)(F)F)c(=O)c3ccccc23)c2cc(F)ccc2n1CC(=O)O [Example 124, 2-(5-fluoro-2-methyl-3-(4-oxo-3-(2,2,2-trifluoroethyl)-3,4-dihydro-phthalazin-1-yl)-1H-indol-1-yl)acetic acid]	8
Cc1c(-c2nn(CCCC(F)(F)F)c(=O)c3ccccc23)c2cc(F)ccc2n1CC(=O)O [Example 125, 2-(5-fluoro-2-methyl-3-(4-oxo-3-(4,4,4-trifluorobutyl)-3,4-dihydro-phthalazin-1-yl)-1H-indol-1-yl)acetic acid]	4
CCC(O)(CC)Cn1nc(-c2c(C)n(CC(=O)O)c3ccc(F)cc23)c2ccccc2c1=O [Example 128, 2-(3-(3-(2-ethyl-2-hydroxybutyl)-4-oxo-3,4-dihydrophthalazin-1-yl)-5-fluoro-2-methyl-1H-indol-1-yl)acetic acid]	6
Cc1c(-c2nn(CC(C)(C)O)c(=O)c3ccccc23)c2cc(F)ccc2n1CC(=O)O [Example 129, 2-(5-fluoro-3-(3-(2-hydroxy-2-methylpropyl)-4-oxo-3,4-dihydrophthalazin-1-yl)-2-methyl-1H-indol-1-yl)acetic acid]	136
Cc1c(-c2nn(CC(O)(C(F)(F)F)C(F)(F)F)c(=O)c3ccccc23)c2cc(F)ccc2n1CC(=O)O [Example 131, 2-(5-fluoro-2-methyl-3-(4-oxo-3-(3,3,3-trifluoro-2-hydroxy-2-(trifluoro-methyl)propyl)-3,4-dihydrophthalazin-1-yl)-1H-indol-1-yl)acetic acid]	54
CCC(=O)Cn1nc(-c2c(C)n(CC(=O)O)c3ccc(F)cc23)c2ccccc2c1=O [Example 133, 2-(5-fluoro-2-methyl-3-(4-oxo-3-(2-oxobutyl)-3,4-dihydrophthalazin-1-yl)-1H-indol-1-yl)acetic acid]	8
Cc1c(-c2nn(Cc3cccnc3)c(=O)c3ccccc23)c2cc(F)ccc2n1CC(=O)O [Example 135, 2-(5-fluoro-2-methyl-3-(4-oxo-3-(pyridin-3-ylmethyl)-3,4-dihydrophthalazin-1-yl)-1H-indol-1-yl)acetic acid]	5
Cc1c(-c2nn(Cc3ccccn3)c(=O)c3ccccc23)c2cc(F)ccc2n1CC(=O)O [Example 136, 2-(5-fluoro-2-methyl-3-(4-oxo-3-(pyridin-2-ylmethyl)-3,4-dihydrophthalazin-1-yl)-1H-indol-1-yl)acetic acid]	4
Cc1c(-c2nn(Cc3ccncc3F)c(=O)c3ccccc23)c2cc(F)ccc2n1CC(=O)O [Example 138, 2-(5-fluoro-3-(3-((3-fluoropyridin-4-yl)methyl)-4-oxo-3,4-dihydrophthalazin-1-yl)-2-methyl-1H-indol-1-yl)acetic acid]	5
Cc1c(-c2ccc(=O)n(Cc3ccc(F)cc3C(F)(F)F)n2)c2cc(Cl)ccc2n1CC(=O)O [Example 142, 2-(5-chloro-3-(1-(4-fluoro-2-(trifluoromethyl)benzyl)-6-oxo-1,6-dihydro-pyridazin-3-yl)-2-methyl-1H-indol-1-yl)acetic acid]	19
Cc1c(-c2ccc(=O)n(Cc3ccc4ccccc4n3)n2)c2cc(Cl)ccc2n1CC(=O)O [Example 144, 2-(5-chloro-2-methyl-3-(6-oxo-1-(quinolin-2-ylmethyl)-1,6-dihydro-pyridazin-3-yl)-1H-indol-1-yl)acetic acid]	11
COc1ccc(Cn2nc(-c3c(C)n(CC(=O)O)c4ccc(Cl)cc34)ccc2=O)cc1 [Example 148, 2-(5-chloro-3-(1-(4-methoxybenzyl)-6-oxo-1,6-dihydropyridazin-3-yl)-2-methyl-1H-indol-1-yl)acetic acid]	42
Cc1c(-c2ccc(=O)n(C)n2)c2cc(Cl)ccc2n1CC(=O)O [Example 149, 2-(5-chloro-2-methyl-3-(1-methyl-6-oxo-1,6-dihydropyridazin-3-yl)-1H-indol-1-yl)acetic acid]	2150
Cc1c(-c2ccc(=O)n(CCOc3ccc(Cl)cc3)n2)c2cc(F)ccc2n1CC(=O)O [Example 152, 2-(3-(1-(2-(4-chlorophenoxy)ethyl)-6-oxo-1,6-dihydropyridazin-3-yl)-5-fluoro-2-methyl-1H-indol-1-yl)acetic acid]	12

Second part, the molecule after the results:

IC50 [nM]	SMILES
27	Cc1c(-c2nn(CC3CC3)c(=O)c3ccccc23)c2cc(F)ccc2n1CC(=O)O [Example 122, 2-(3-(3-(cyclopropylmethyl)-4-oxo-3,4-dihydrophthalazin-1-yl)-5-fluoro-2-methyl-1H-indol-1-yl)acetic acid]
8	Cc1c(-c2nn(CC(C)(C)C)c(=O)c3ccccc23)c2cc(F)ccc2n1CC(=O)O [Example 126, 2-(5-fluoro-2-methyl-3-(3-neopentyl-4-oxo-3,4-dihydrophthalazin-1-yl)-1H-indol-1-yl)acetic acid]
4	Cc1c(-c2nn(CCC(F)(F)F)c(=O)c3ccccc23)c2cc(F)ccc2n1CC(=O)O [Example 127, 2-(5-fluoro-2-methyl-3-(4-oxo-3-(3,3,3-trifluoropropyl)-3,4-dihydro-phthalazin-1-yl)-1H-indol-1-yl)acetic acid]
> 1000	CC(C)=CCn1nc(-c2c(C)n(CC(=O)O)c3ccc(F)cc23)c2ccccc2c1=O [Example 130, 2-(5-fluoro-2-methyl-3-(3-(3-methylbut-2-enyl)-4-oxo-3,4-dihydro-phthalazin-1-yl)-1H-indol-1-yl)acetic acid]
75	Cc1c(-c2nn(CCC(C)(C)O)c(=O)c3ccccc23)c2cc(F)ccc2n1CC(=O)O [Example 132, 2-(5-fluoro-3-(3-(3-hydroxy-3-methylbutyl)-4-oxo-3,4-dihydrophthalazin-1-yl)-2-methyl-1H-indol-1-yl)acetic acid]
3	Cc1c(-c2nn(Cc3ccncc3)c(=O)c3ccccc23)c2cc(F)ccc2n1CC(=O)O [Example 134, 2-(5-fluoro-2-methyl-3-(4-oxo-3-(pyridin-4-ylmethyl)-3,4-dihydrophthalazin-1-yl)-1H-indol-1-yl)acetic acid]
21	Cc1c(-c2nn(CCC(C(F)(F)F)C(F)(F)F)c(=O)c3ccccc23)c2cc(F)ccc2n1CC(=O)O [Example 137, 2-(5-fluoro-2-methyl-3-(4-oxo-3-(4,4,4-trifluoro-3-(trifluoromethyl)butyl)-3,4-dihydrophthalazin-1-yl)-1H-indol-1-yl)acetic acid]
24	Cc1c(-c2ccc(=O)n(Cc3ccc(F)cc3)n2)c2cc(Cl)ccc2n1CC(=O)O [Example 139, 2-(5-Chloro-3-(1-(4-fluorobenzyl)-6-oxo-1,6-dihydropyridazin-3-yl)-2-methyl-1H-indol-1-yl)acetic acid]
16	Cc1c(-c2ccc(=O)n(CCOc3ccc(Cl)cc3)n2)c2cc(Cl)ccc2n1CC(=O)O [Example 140, 2-(5-chloro-3-(1-(2-(4-chlorophenoxy)ethyl)-6-oxo-1,6-dihydropyridazin-3-yl)-2-methyl-1H-indol-1-yl)acetic acid]
46	Cc1c(-c2ccc(=O)n(Cc3nc4ccccc4s3)n2)c2cc(Cl)ccc2n1CC(=O)O [Example 141, 2-(3-(1-(benzo[d]thiazol-2-ylmethyl)-6-oxo-1,6-dihydropyridazin-3-yl)-5-chloro-2-methyl-1H-indol-1-yl)acetic acid]
55	Cc1c(-c2ccc(=O)n(Cc3cccc(F)c3C(F)(F)F)n2)c2cc(Cl)ccc2n1CC(=O)O [Example 143, 2-(5-chloro-3-(1-(3-fluoro-2-(trifluoromethyl)benzyl)-6-oxo-1,6-dihydro-pyridazin-3-yl)-2-methyl-1H-indol-1-yl)acetic acid]
144	Cc1cc(Cn2nc(-c3c(C)n(CC(=O)O)c4ccc(Cl)cc34)ccc2=O)c2ccccc2n1 [Example 145, 2-(5-chloro-2-methyl-3-(1-((2-methylquinolin-4-yl)methyl)-6-oxo-1,6-dihydropyridazin-3-yl)-1H-indol-1-yl)acetic acid]
74	Cc1ccc(Cn2nc(-c3c(C)n(CC(=O)O)c4ccc(Cl)cc34)ccc2=O)cc1 [Example 146, 2-(5-chloro-2-methyl-3-(1-(4-methylbenzyl)-6-oxo-1,6-dihydropyridazin-3-yl)-1H-indol-1-yl)acetic acid]
334	Cc1c(-c2ccc(=O)n(Cc3ccc(C(C)C)cc3)n2)c2cc(Cl)ccc2n1CC(=O)O [Example 147, 2-(5-chloro-3-(1-(4-isopropylbenzyl)-6-oxo-1,6-dihydropyridazin-3-yl)-2-methyl-1H-indol-1-yl)acetic acid]
559	CCn1nc(-c2c(C)n(CC(=O)O)c3ccc(Cl)cc23)ccc1=O [Example 150, 2-(5-chloro-3-(1-ethyl-6-oxo-1,6-dihydropyridazin-3-yl)-2-methyl-1H-indol-1-yl)acetic acid]
